Values of other authors, collected in PubChem BioAssay AID1259410 (Chemical Carcinogenesis Research Information System (CCRIS), 2018).

Tested on: rodent tumor promotion studies, tumor incidence
Test: CCRIS tumor promotion studies
Conditions: Route [Promoter]: DERMAL, Species: MOUSE

**Q.** What does the source list for `CCCCCCCCCCCCCC(=O)O[C@@H]1[C@@H](C)[C@@]2(O)[C@@H](C=C(CO)C[C@]3(O)C(=O)C(C)=C[C@@H]23)[C@@H]2C(C)(C)[C@]12OC(C)=O`?
**A.** outcome (Carcinogen: BENZO[B]FLUORANTHENE, 205-99-2, Doses [Carcinogen]: 0, 0.04, 0.12, 0.4 UMOL (TOTAL DOSE) APPLIED IN SUBDOSES 1/2 D FOR 5 WK, Doses [Carcinogen]: 0, 0.04, 0.12, 0.4 UMOL (TOTAL DOSE) APPLIED IN SUBDOSES 1/2 D FOR 5 WK, Doses [Promoter]: 2.5 UG IN 100 µL ACETONE 3/WK FOR 20 WK BEGINNING 10 D POST LAST CARCINOGEN DOSE (STUDY DURATION: 26 WK), Route [Carcinogen]: DERMAL, Strain/Sex: CD-1/FEMALE): skin: tumor; outcome (Carcinogen: BENZO[B]FLUORANTHENE, 205-99-2, Doses [Carcinogen]: 40, 120, 400 NMOL (TOTAL DOSE) APPLIED 1/2 D FOR 10 SUBDOSES, Doses [Carcinogen]: 40, 120, 400 NMOL (TOTAL DOSE) APPLIED 1/2 D FOR 10 SUBDOSES, Doses [Promoter]: 0, 2.5 UG IN 100 µL ACETONE 3/WK FOR 20 WK BEGINNING 10 D POST CARCINOGEN TREATMENT (STUDY DURATION: 22 WK), Route [Carcinogen]: DERMAL, Strain/Sex: CRL:CD-1/FEMALE): skin: tumor; outcome (Carcinogen: BENZO[B]FLUORANTHRENE, 205-99-2, Doses [Carcinogen]: 40, 100 NMOL TOTAL DOSES GIVEN IN 10 SUBDOSES 1/2 D IN 0.1 ML ACETONE, Doses [Promoter]: 2.5 UG IN 0.1 ML ACETONE 3/WK FOR 30 WK BEGINNING 10 D POST CARCINOGEN TREATMENT (STUDY DURATION: 34 WK), Route [Carcinogen]: DERMAL, Strain/Sex: CD-1/FEMALE): skin: tumors; outcome (Carcinogen: BENZO[J]FLUORANTHENE, 205-82-3, Doses [Carcinogen]: 0, 1, 3 UMOL (TOTAL DOSE) IN ACETONE SOLUTION 1/2 D FOR 10 DOSES, Doses [Carcinogen]: 0, 1, 3 UMOL (TOTAL DOSE) IN ACETONE SOLUTION 1/2 D FOR 10 DOSES, Doses [Promoter]: 2.5 UG IN ACETONE 3/WK BEGINNING 10 D POST LAST CARCINOGEN DOSE AND CONTINUING FOR 20 WK (STUDY DURATION: 23 WK), Route [Carcinogen]: DERMAL, Strain/Sex: CD-1/FEMALE): skin: tumors; outcome (Carcinogen: BENZO[J]FLUORANTHENE, 205-82-3, Doses [Carcinogen]: 0.3, 1, 2 UMOL (TOTAL DOSE) ADMINISTERED IN SUBDOSES 1/2 D, Doses [Carcinogen]: 0.3, 1, 2 UMOL (TOTAL DOSE) ADMINISTERED IN SUBDOSES 1/2 D, Doses [Promoter]: 2.5 UG IN 100 µL ACETONE 3/WK FOR 20 WK BEGINNING 10 D POST LAST CARCINOGEN DOSE (STUDY DURATION: 27 WK), Route [Carcinogen]: DERMAL, Strain/Sex: CD-1/FEMALE): skin: tumor; outcome (Carcinogen: BENZO[K]FLUORANTHENE, 207-08-9, Doses [Carcinogen]: 4 UMOL (TOTAL DOSE) ADMINISTERED IN 10 SUBDOSES 1/2 D, Doses [Promoter]: 2.5 UG IN 0.1 ML ACETONE 3/WK FOR 30 WK BEGINNING 10 D POST CARCINOGEN TREATMENT (STUDY DURATION: 33 WK), Route [Carcinogen]: DERMAL, Strain/Sex: CRL:CD-1/FEMALE): skin: tumor; outcome (Carcinogen: CAPTAN, 133-06-2, Doses [Carcinogen]: 450 MG/KG BW IN 200 µL DMSO 3/WK FOR 3 WK, Doses [Promoter]: 0, 5 UG IN 100 µL ACETONE 3/WK FOR 51 WK BEGINNING 1 WK POST CARCINOGEN TREATMENT (STUDY DURATION: 54 WK), Route [Carcinogen]: DERMAL, Strain/Sex: SWISS/FEMALE): skin: tumor; outcome (Carcinogen: CARBARYL, 63-25-2, Doses [Carcinogen]: 100 MG/KG IN 100 µL ACETONE 3/WK FOR 3 WK, Doses [Promoter]: 0, 5 UG IN 100 µL ACETONE 3/WK FOR 51 WK BEGINNING 1 WK POST CARCINOGEN TREATMENT (STUDY DURATION: 52 WK), Route [Carcinogen]: DERMAL, Strain/Sex: SWISS/FEMALE): skin: tumor; outcome (Carcinogen: CISPLATIN, 15663-27-1, Doses [Carcinogen]: 7.5 MG/KG IN 2.5% SALINE ONCE ON DAY 17 OF GESTATION, Doses [Promoter]: 0, 2 UG IN ACETONE 2/WK FOR 20 WK TO OFFSPRING OF MOTHERS ADMINISTERED CARCINOGEN (STUDY DURATION: 25 WK), Route [Carcinogen]: INTRAPERITONEAL, TRANSPLACENTAL, Strain/Sex: SENCAR/MALE, FEMALE): skin: papilloma; outcome (Carcinogen: DIBENZO[A,L]PYRENE-8,9-DIHYDRODIOL, 130063-43-3, Doses [Carcinogen]: 100 NMOL IN 100 µL ACETONE ONCE, Doses [Promoter]: 3.24 NMOL/100 µL ACETONE 2/WK BEGINNING 2 WK POST CARCINOGEN DOSE AND CONTINUING FOR 24 WK (STUDY DURATION: 27 WK), Route [Carcinogen]: DERMAL, Strain/Sex: SENCAR/FEMALE): skin: tumor; outcome (Carcinogen: DIBENZO[A,L]PYRENE-11,12-DIHYDRODIOL, 88191-01-9, Doses [Carcinogen]: 1 NMOL IN 100 µL ACETONE, Doses [Promoter]: 2.16 NMOL IN 100 µL ACETONE 2/WK FOR 27 WK BEGINNING 1 WK POST CARCINOGEN DOSE (STUDY DURATION: 28 WK), Route [Carcinogen]: DERMAL, Strain/Sex: SENCAR/FEMALE): skin: tumor; outcome (Carcinogen: DIBENZO[A,L]PYRENE-11,12-DIHYDRODIOL, 88191-01-9, Doses [Carcinogen]: 4, 20, 100 NMOL IN 100 µL ACETONE ONCE, Doses [Carcinogen]: 4, 20, 100 NMOL IN 100 µL ACETONE ONCE, Doses [Promoter]: 3.24 NMOL/100 µL ACETONE 2/WK BEGINNING 2 WK POST CARCINOGEN DOSE AND CONTINUING FOR 24 WK (STUDY DURATION: 27 WK), Route [Carcinogen]: DERMAL, Strain/Sex: SENCAR/FEMALE): skin: tumor; outcome (Carcinogen: DIBENZO[A,L]PYRENE-11,12-DIHYDRODIOL, 155254-86-7, Doses [Carcinogen]: 1.33, 4, 12 NMOL IN 100 ML ACETONE ONCE, Doses [Carcinogen]: 1.33, 4, 12 NMOL IN 100 ML ACETONE ONCE, Doses [Promoter]: 1.62 NMOL IN 100 ML ACETONE 2/WK FOR 28 WK BEGINNING 1 WK POST CARCINOGEN DOSE (STUDY DURATION: 30 WK), Route [Carcinogen]: DERMAL, Strain/Sex: SENCAR/FEMALE): skin: tumor
